The results in this text go back to ChEMBL document CHEMBL3352178, “Antidepressant- and anxiolytic-like activity of 7-phenylpiperazinylalkyl-1,3-dimethyl-purine-2,6-dione derivatives with diversified 5-HT₁A receptor functional profile” (Bioorg Med Chem, 2015).

The source made the active and inactive calls. The calls are words filed in the database; no cut-off is given here.

Data set [1] deals with Mus musculus. Description: Antidepressant-like activity in mouse assessed as reduction in immobility time at 0.625 mg/kg, ip dosed 60 mins before test by forced swim test. In kind it is functional. Further details: scale not given: the % may be the effect or the level left. To be noted: route intraperitoneal.
The subject of data set [2] is Mus musculus. The experiment in a line: Antidepressant-like activity in mouse assessed as reduction in immobility time at 1.25 mg/kg, ip dosed 60 mins before test by forced swim test. In kind it is functional. Further details: scale not given: the % may be the effect or the level left. The following applies: route intraperitoneal.
Data set [3] relates to Mus musculus. The experiment in a line: Effect on spontaneous locomotor activity in ip dosed mouse during 2 to 6 mins. In kind it is ADME, organism-based. The following applies: in vivo.
In data set [4] the test system is Mus musculus. Description: Antidepressant-like activity in mouse assessed as reduction in immobility time at 0.625 mg/kg, ip dosed 60 mins before test in presence of 0.3 mg/kg, sc 5HT1A receptor antagonist WAY 100635 by forced swim test. In kind it is functional, organism-based.
The target in data set [5] is T1, 5-hydroxytryptamine receptor 1A (Rattus norvegicus, UniProt P19327).
T1 sequence (P19327 whole entry): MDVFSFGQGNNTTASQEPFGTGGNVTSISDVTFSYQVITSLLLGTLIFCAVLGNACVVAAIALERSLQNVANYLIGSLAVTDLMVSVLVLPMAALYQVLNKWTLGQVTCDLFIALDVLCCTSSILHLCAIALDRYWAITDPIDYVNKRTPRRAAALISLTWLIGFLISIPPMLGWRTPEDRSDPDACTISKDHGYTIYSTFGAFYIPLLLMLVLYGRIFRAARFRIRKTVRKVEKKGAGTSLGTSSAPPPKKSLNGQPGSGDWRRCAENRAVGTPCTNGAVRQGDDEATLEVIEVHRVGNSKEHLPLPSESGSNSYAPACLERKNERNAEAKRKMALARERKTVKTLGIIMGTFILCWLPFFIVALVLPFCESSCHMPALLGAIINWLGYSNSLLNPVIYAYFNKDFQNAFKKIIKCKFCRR
The experiment in a line: Displacement of [3H]-8-OH-DPAT from 5-HT1AR in rat hippocampus. In kind it is tissue-based. In general terms: Loss of bound radioactivity is the signal in a displacement assay; it reports binding, not function.

Data set [6] addresses 5-hydroxytryptamine receptor 2A (Rattus norvegicus, UniProt P14842). The experiment in a line: Displacement of [3H]-ketanserin from 5-HT2AR in rat cortex.
Data set [7] concerns the target 5-hydroxytryptamine receptor 6 (Homo sapiens, UniProt P50406). Description: Displacement of [3H]LSD from human cloned 5-HT6R expressed in HEK293 cells. In kind it is cell-based.
In data set [8] the target is 5-hydroxytryptamine receptor 7 (Homo sapiens, UniProt P34969). Description: Displacement of [3H]]-5-CT from human cloned 5-HT7R expressed in HEK293 cells. In kind it is cell-based.
Sequence of 5-hydroxytryptamine receptor 7 (P34969 whole entry): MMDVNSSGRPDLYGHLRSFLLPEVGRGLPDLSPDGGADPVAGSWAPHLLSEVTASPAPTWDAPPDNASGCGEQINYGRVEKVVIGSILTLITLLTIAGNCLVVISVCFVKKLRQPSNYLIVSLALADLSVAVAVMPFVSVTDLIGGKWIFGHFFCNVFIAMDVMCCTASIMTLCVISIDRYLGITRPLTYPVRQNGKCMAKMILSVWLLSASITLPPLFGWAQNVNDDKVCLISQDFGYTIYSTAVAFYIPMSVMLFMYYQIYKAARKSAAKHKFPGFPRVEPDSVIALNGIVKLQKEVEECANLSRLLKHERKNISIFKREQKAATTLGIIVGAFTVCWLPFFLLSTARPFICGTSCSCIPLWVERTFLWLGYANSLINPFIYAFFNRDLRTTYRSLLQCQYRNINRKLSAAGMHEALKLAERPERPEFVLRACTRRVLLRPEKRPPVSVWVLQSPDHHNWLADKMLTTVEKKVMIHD
A further data set concerns the target D(2) dopamine receptor (Rattus norvegicus, UniProt P61169). The experiment in a line: Displacement of [3H]-spiperone from dopamine D2 receptor in rat striatum.
The test system of data set [9] is Mus musculus. The experiment in a line: Induction of hypothermia in mouse assessed as change in body temperature at 5 mg/kg, ip administered 30 mins before test and measured 30 mins post dose. In kind it is functional, organism-based. Set-up: dose 5 mg/kg.
Data set [10] relates to Mus musculus. Description: Induction of hypothermia in mouse assessed as change in body temperature at 10 mg/kg, ip administered 30 mins before test and measured 30 mins post dose. In kind it is functional, organism-based. Set-up: dose 10 mg/kg.
The test system of data set [11] is Mus musculus. Description: Induction of hypothermia in mouse assessed as change in body temperature at 5 mg/kg, ip administered 30 mins before test and measured 60 mins post dose. In kind it is functional, organism-based. Set-up: dose 5 mg/kg.
Data set [12] has as its system Mus musculus. Description: Induction of hypothermia in mouse assessed as change in body temperature at 10 mg/kg, ip administered 30 mins before test and measured 60 mins post dose. In kind it is functional, organism-based. Further details: dose 10 mg/kg.
In data set [13] the test system is Mus musculus. Description: Induction of hypothermia in mouse assessed as change in body temperature at 5 mg/kg, ip administered 30 mins before test and measured 90 mins post dose. Set-up: dose 5 mg/kg. In kind it is functional, organism-based.
Data set [14] concerns Mus musculus. The experiment in a line: Induction of hypothermia in mouse assessed as change in body temperature at 10 mg/kg, ip administered 30 mins before test and measured 90 mins post dose. In kind it is functional, organism-based. Further details: dose 10 mg/kg.
The subject of data set [15] is Mus musculus. The experiment in a line: Induction of hypothermia in mouse assessed as change in body temperature at 5 mg/kg, ip administered 30 mins before test and measured 120 mins post dose. Set-up: dose 5 mg/kg. In kind it is functional, organism-based.
In data set [16] the test system is Mus musculus. The experiment in a line: Induction of hypothermia in mouse assessed as change in body temperature at 10 mg/kg, ip administered 30 mins before test and measured 120 mins post dose. In kind it is functional, organism-based. Set-up: dose 10 mg/kg.
Data set [17] deals with Mus musculus. Description: Induction of hypothermia in mouse assessed as change in body temperature at 10 mg/kg, ip administered 30 mins before test and measured 30 mins post dose in presence of 0.3 mg/kg, sc 5HT1A receptor antagonist WAY 100635. In kind it is functional, organism-based.
For data set [18], the system named is Mus musculus. The experiment in a line: Induction of hypothermia in mouse assessed as change in body temperature at 10 mg/kg, ip administered 30 mins before test and measured 60 mins post dose in presence of 0.3 mg/kg, sc 5HT1A receptor antagonist WAY 100635. In kind it is functional, organism-based.
Data set [19] concerns Rattus norvegicus. The experiment in a line: Induction of lower lip retraction in rat assessed as lower lip retraction scores at 5 mg/kg, ip dosed 15 mins before test. In kind it is functional. To be noted: route intraperitoneal.
The subject of data set [20] is Rattus norvegicus. Description: Induction of lower lip retraction in rat assessed as lower lip retraction scores at 10 mg/kg, ip dosed 15 mins before test. In kind it is functional. To be noted: route intraperitoneal.
The test system of data set [21] is Rattus norvegicus. The experiment in a line: Inhibition of 8-OH-DPAT-induced lower lip retraction in rat assessed as lower lip retraction scores at 5 mg/kg, ip dosed 45 mins before 8-OH-DPAT. In kind it is functional. The following applies: route intraperitoneal.
The test system of data set [22] is Rattus norvegicus. The experiment in a line: Induction of lower lip retraction in rat assessed as lower lip retraction scores at 10 mg/kg, ip dosed 45 mins after 0.3 mg/kg, sc 5HT1A receptor antagonist WAY 100635. In kind it is functional.

Sequence of 5-hydroxytryptamine receptor 2A (P14842 whole entry): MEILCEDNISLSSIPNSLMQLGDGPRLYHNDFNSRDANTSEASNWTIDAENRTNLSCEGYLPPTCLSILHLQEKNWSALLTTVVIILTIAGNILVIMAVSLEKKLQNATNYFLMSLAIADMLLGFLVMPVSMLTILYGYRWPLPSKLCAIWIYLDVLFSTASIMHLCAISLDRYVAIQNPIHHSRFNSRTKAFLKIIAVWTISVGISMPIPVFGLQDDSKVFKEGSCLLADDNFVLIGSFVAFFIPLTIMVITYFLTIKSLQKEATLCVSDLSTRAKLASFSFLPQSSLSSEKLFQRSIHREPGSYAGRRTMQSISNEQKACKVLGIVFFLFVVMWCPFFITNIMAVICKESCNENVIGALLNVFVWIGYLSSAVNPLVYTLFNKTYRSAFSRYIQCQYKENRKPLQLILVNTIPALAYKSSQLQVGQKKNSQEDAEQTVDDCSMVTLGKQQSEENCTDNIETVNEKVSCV
Sequence of 5-hydroxytryptamine receptor 6 (P50406 whole entry): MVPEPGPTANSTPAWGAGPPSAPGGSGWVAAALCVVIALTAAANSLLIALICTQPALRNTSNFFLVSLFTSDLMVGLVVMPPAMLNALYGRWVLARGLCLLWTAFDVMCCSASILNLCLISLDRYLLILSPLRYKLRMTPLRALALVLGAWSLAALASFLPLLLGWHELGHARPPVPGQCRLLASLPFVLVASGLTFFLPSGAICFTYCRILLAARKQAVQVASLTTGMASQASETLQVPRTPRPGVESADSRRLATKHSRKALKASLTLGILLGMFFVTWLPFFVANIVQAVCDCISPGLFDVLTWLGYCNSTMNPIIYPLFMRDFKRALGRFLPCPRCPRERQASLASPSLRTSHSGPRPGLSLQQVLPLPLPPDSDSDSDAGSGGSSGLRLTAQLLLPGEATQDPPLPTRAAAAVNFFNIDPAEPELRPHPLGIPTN
Sequence of D(2) dopamine receptor (P61169 whole entry): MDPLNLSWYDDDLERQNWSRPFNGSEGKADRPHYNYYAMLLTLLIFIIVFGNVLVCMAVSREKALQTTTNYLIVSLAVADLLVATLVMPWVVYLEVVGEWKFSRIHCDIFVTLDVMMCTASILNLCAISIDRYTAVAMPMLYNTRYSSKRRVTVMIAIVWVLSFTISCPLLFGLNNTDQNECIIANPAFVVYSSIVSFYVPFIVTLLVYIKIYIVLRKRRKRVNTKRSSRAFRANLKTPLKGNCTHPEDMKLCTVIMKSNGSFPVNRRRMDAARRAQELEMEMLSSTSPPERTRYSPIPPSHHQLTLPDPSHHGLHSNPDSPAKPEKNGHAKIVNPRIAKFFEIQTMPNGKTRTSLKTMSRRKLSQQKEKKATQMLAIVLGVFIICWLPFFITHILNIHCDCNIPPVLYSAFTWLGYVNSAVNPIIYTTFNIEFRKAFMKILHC

The Ki is a measure of affinity in units of concentration, obtained from inhibition or displacement. As for `COc1ccccc1N1CCN(CCCCCn2cnc3c2c(=O)n(C)c(=O)n3C)CC1.Cl`, the Activity in the data set on Mus musculus [1] is on record as 30%; in the data set on Mus musculus [2] it was 35%; in the data set on Mus musculus [3] it was “Non-toxic”; in the data set with Rattus norvegicus [19], 0.6; in the data set on Rattus norvegicus [20], 0.8; in the data set with Rattus norvegicus [21], 2.1. The Activity in the data set on Rattus norvegicus [22] is listed as 0.1. Moreover, in the data set on Mus musculus [4], the outcome was inactive. Moreover, the inhibitory constant (Ki) in data set [5] amounted to 1 nM; in data set [6], 598 nM; in data set [7], 8990 nM; in [8], 294 nM; on D(2) dopamine receptor it was 33 nM. In addition, the deltaT in the data set on Mus musculus [9] was -1 °C; in the data set with Mus musculus [10], -2.1 °C; in the data set on Mus musculus [11], -0.2 °C; in the data set with Mus musculus [12], -1 °C; in the data set on Mus musculus [13] it was 0.3 °C; in the data set on Mus musculus [14] it was -0.9 °C. In addition, the deltaT in the data set on Mus musculus [15] was 0.3 °C; in the data set on Mus musculus [16], -0.4 °C; in the data set on Mus musculus [17], -1.8 °C; in the data set with Mus musculus [18] it was -1.6 °C.
